Like-named read-outs stand apart in the source and are kept apart here.
Test: Measurement of logP values by HPLC on reversed phase columns (EEC directive 79/831 Annex V.A8)
Assay type: physicochemical
Conditions: for chromatographic logP: reversed phase HPLC column
Protocol: Measurement of logP values was performed according EEC directive 79/831 Annex V.A8 by HPLC (High Performance Liquid Chromatography) on reversed phase columns with the following methods: • ^[a] Measurement was done at pH 2.3 with 0.1% phosphoric acid and acetonitrile as eluent. • ^[b] measurement of LC-MS was done at pH 2.7 with 0.1% formic acid in water and with acetonitrile (contains 0.1% formic acid) as eluent with a linear gradient from 10% acetonitrile to 95% acetonitrile. • ^[c] Measurement with LC-MS was done at pH 7.8 with 0.001 molar ammonium hydrogen carbonate solution in water as eluent with a linear gradient from 10% acetonitrile to 95% acetonitrile.

[1] = pH 2.7, HCOOH, given in preparation examples, read-out: logP(HCOOH)
[2] = method [a]: pH 2.3 with 0.1% phosphoric acid and acetonitrile as eluent, read-out: log p
[3] = method [a]: pH 2.3 with 0.1% phosphoric acid and acetonitrile as eluent
[4] = method [b]: LC-MS at pH 2.7 with 0.1% formic acid in water and acetonitrile, linear gradient 10% to 95% acetonitrile

Row | SMILES | chromatographic logP [1] | log p [4] | other results
1 | CC(O)c1csc(N)n1 (stereo not shown) [1-(2-amino-1,3-thiazol-4-yl)ethanol] | -0.16 |  | 
2 | CC(O)c1csc(Br)n1 (stereo not shown) [1-(2-bromo-1,3-thiazol-4-yl)ethanol] | 1.1 |  | 
3 | CC(Br)c1csc(Br)n1 (stereo not shown) [2-bromo-4-(1-bromoethyl)-1,3-thiazole] | 2.61 |  | 
4 | CC(ON=C(c1ccccc1)c1nnnn1C)c1csc(Br)n1 (stereo not shown) [Example 1] | 3.44 |  | chromatographic logP [2]: 3.44
5 | CC(ON=C(c1ccccc1)c1nnnn1C)c1csc(C#CC2CC2)n1 (stereo not shown) [Example 2, N-{1-[2-(cyclopropylethynyl)-1,3-thiazol-4-yl]ethoxy}-1-(1-methyl-1H-tetrazol-5-yl)-1-phenylmethanimine] | 3.89 |  | chromatographic logP [2]: 3.89
6 | CC(ON=C(c1ccccc1)c1nnnn1C)c1csc(C#CCCCc2ccccc2)n1 (stereo not shown) [Example 3] |  |  | log p [3]: 5.08^[a]
7 | CC(ON=C(c1ccccc1)c1nnnn1C)c1csc(C#CCC2CCCC2)n1 (stereo not shown) [Example 4] |  |  | log p [3]: 5.23^[a]
8 | CC(ON=C(c1ccccc1)c1nnnn1C)c1csc(C#CCC2CCCCC2)n1 (stereo not shown) [Example 5] |  |  | log p [3]: 5.65^[a]
9 | CCCCC#Cc1nc(C(C)ON=C(c2ccccc2)c2nnnn2C)cs1 (stereo not shown) [Example 6] |  |  | log p [3]: 4.73^[a]
10 | Cn1nnnc1C(=NOCCc1csc(Br)n1)c1ccccc1 [Example 7] |  |  | log p [3]: 3.25^[a]
11 | Cn1nnnc1C(=NOCCc1csc(C#CC2CC2)n1)c1ccccc1 [Example 8] |  |  | log p [3]: 3.69^[a]
12 | CCCCC#Cc1nc(CCON=C(c2ccccc2)c2nnnn2C)cs1 [Example 9] |  |  | log p [3]: 4.46^[a]
13 | Cn1nnnc1C(=NOC(=O)c1ccccn1)c1ccccc1 [Example 10] |  | 2.13^[b] | 
14 | CC(ON=C(c1ccccc1)c1nnnn1C)c1ccccn1 (stereo not shown) [Example 11] |  | 2.19^[b] | 
15 | CC(ON=C(c1ccccc1)c1nnnn1C)c1cccc(N)n1 (stereo not shown) [Example 12] |  | 1.34^[b] | 
16 | CC(C)CC(=O)Nc1cccc(C(C)O/N=C(/c2ccccc2)c2nnnn2C)n1 (stereo not shown) [Example 13] |  | 3.53^[b] | 
17 | CCCCCC(=O)Nc1cccc(C(C)O/N=C(\c2ccccc2)c2nnnn2C)n1 (stereo not shown) [Example 14] |  | 3.83^[b] | 
18 | CCCCCOC(=O)Nc1cccc(C(C)O/N=C(\c2ccccc2)c2nnnn2C)n1 (stereo not shown) [Example 15] |  | 4.41^[b] | 
19 | CC(ON=C(c1ccccc1)c1nnnn1C)c1cccc(N)n1 (stereo not shown) [Example 16, 6-[1-({[(1-methyl-1H-tetrazol-5-yl)(phenyl)methylene]amino}oxy)ethyl]pyridin-2-amine] | 1.21 |  | 
20 | CCCCCC(=O)Nc1cccc(C(C)O/N=C(/c2ccccc2)c2nnnn2C)n1 (stereo not shown) [Example 17] |  | 3.96^[b] | 
21 | CCCCCOC(=O)Nc1cccc(C(C)O/N=C(/c2ccccc2)c2nnnn2C)n1 (stereo not shown) [Example 18] |  | 4.54^[b] | 
22 | CC(ON=C(c1ccccc1)c1nnnn1C)c1cccc(NC(=O)C(C)(C)C)n1 (stereo not shown) [Example 19, 2,2-dimethyl-N-{6-[1-({[(1-methyl-1H-tetrazol-5-yl)(phenyl)methylene]amino}oxy)ethyl]pyridin-2-yl}propanamide] | 3.64 |  | 
23 | CC(ON=C(c1ccccc1)c1nnnn1C)c1cccc(NC(=O)OC(C)(C)C)n1 (stereo not shown) [Example 20, tert-butyl {6-[1-({[(1-methyl-1H-tetrazol-5-yl)(phenyl)methylene]amino}oxy)ethyl]pyridin-2-yl}carbamate] | 4.09 |  | 
24 | CC(C)(C)C(=O)Nc1cccc(Br)n1 [N-(6-bromopyridin-2-yl)-2,2-dimethylpropanamide] | 2.84 |  | 
25 | CC(Br)c1cccc(NC(=O)C(C)(C)C)n1 (stereo not shown) [N-[6-(1-bromoethyl)pyridin-2-yl]-2,2-dimethylpropanamide] | 3.05 |  | 
26 | CC(O)c1cccc(NC(=O)C(C)(C)C)n1 (stereo not shown) [N-[6-(1-hydroxyethyl)pyridin-2-yl]-2,2-dimethylpropanamide] | 1.08 |  | 

Source: patent US8557849B2 (priority 2008, dated 2013)
